According to article PMC5449500, “Comparative Effects of Chloride Channel Inhibitors on LRRC8/VRAC-Mediated Chloride Conductance” (Frontiers in Pharmacology, 2017):
Values joined by “and” are separate entries in the source; they are usually repeats but may differ in a detail not shown here. Equal values may be shown once. “Also recorded” adds a separate entry of the source. Read-outs that look alike come from different tables or passages of the source.

How the values were obtained:
[1] = target: T1, LRRC8/VRAC (Homo sapiens, UniProt Q8IWT6); experiment: Patch-clamp whole-cell recording of hypotonicity-activated VRAC/LRRC8 chloride current (ICl,swell); format: cell-based; details: for inhibition at 10 µM / Inhibition at 10 μM (%) of chloride conductance: 10 μM inhibitor, -100 mV; for inhibition at 10 µM: read-out: Inhibition at 10 μM (%) of chloride conductance; for Hill coefficient (chloride conductance): WT HEK-293, fitted concentration-response curve at -100 mV; for IC50: read-out: IC50 (chloride conductance); for Effect on hypotonic-activated Cl- currents at 20 μM / inhibition at 20 µM: 20 μM inhibitor
T1 construct: tested in wild-type HEK-293 cells expressing LRRC8 proteins; endogenous in cells; host or cells: wild-type HEK-293 cells
T1 sequence (Q8IWT6 1-810): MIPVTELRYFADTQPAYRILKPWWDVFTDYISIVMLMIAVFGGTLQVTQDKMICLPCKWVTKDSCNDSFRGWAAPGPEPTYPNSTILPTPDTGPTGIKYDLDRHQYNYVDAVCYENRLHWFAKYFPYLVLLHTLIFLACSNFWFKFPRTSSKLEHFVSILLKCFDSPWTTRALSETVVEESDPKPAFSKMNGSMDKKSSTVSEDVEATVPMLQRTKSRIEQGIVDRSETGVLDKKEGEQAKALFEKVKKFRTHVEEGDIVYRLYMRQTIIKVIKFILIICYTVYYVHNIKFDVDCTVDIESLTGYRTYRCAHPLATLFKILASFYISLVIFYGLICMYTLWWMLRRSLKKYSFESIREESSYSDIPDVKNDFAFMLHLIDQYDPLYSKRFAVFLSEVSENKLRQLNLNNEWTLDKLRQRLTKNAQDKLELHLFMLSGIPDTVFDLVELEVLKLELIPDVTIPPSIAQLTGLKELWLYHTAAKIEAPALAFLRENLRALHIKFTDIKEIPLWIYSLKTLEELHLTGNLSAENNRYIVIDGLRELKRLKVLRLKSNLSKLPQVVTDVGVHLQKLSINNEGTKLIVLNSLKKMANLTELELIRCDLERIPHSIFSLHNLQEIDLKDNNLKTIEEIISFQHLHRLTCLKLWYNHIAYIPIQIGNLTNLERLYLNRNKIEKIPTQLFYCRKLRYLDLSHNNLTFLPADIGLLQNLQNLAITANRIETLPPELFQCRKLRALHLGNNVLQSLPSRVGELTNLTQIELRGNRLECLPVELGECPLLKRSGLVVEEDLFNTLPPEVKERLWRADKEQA
T1 sequence (Q7L1W4 1-858 partner): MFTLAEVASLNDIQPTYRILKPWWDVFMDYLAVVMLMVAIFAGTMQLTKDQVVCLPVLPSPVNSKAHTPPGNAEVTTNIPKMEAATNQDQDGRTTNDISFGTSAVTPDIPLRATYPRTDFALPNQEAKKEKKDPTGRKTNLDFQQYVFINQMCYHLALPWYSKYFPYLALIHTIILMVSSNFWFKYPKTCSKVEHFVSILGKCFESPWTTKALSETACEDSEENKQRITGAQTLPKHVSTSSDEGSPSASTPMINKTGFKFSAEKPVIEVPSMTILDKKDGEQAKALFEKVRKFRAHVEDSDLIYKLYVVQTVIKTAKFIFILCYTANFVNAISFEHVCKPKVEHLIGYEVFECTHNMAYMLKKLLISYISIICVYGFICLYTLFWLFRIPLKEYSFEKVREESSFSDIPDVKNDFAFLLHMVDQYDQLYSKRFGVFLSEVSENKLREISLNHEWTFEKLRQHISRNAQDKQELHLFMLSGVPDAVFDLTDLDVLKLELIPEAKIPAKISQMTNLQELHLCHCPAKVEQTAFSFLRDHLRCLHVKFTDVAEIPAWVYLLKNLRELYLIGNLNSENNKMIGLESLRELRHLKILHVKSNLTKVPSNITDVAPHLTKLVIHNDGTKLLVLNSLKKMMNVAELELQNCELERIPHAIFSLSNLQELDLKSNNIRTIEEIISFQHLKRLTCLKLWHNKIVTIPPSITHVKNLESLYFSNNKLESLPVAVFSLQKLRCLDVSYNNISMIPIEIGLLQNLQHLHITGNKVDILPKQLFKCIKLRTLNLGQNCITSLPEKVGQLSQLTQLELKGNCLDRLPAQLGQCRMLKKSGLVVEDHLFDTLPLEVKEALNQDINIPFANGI
Experimental: The ruptured-whole-cell configuration of the patch-clamp technique was used to measure the activation of VRAC conductance during hypotonic experimental conditions. Cell currents and cell capacitances were recorded using an EPC 10 amplifier [HEKA Elektronik, Lambrecht (Pfalz), Germany]. The membrane potential of the cells was held at -50 mV, and 400-ms pulses from -100 to +100 mV were applied in 20-mV increments. The I/V relationships were expressed as the mean current amplitudes measured at all potentials at 6–10 ms after the pulse onset.
The pipette solution contained (in mM) 140 NMDGCl, 10 HEPES (pH 7.4, HCl), 5 EGTA and 5 MgATP (290 mOsm.l^-1). The normal NMDGCl bath solution contained (in mM) 140 NMDGCl, 10 HEPES (pH 7.4, HCl), 1 CaCl2, 1 MgCl2, and ∼70 mannitol (340 mOsm.l^-1). This solution was designed to prevent the spontaneous activation of VRAC currents. Hypo-osmotic NMDGCl solution (270 mOsm.l^-1) was obtained by removing the mannitol from the NMDGCl bath solution.
Patch-clamp whole-cell recordings were performed in iso-osmotic bath solution (control condition), and the solution was rapidly exchanged to the hypo-osmotic solution. The hypotonic condition was maintained until the LRRC8/VRAC current had stabilized at its maximal value (3–6 min). The percent inhibition at each concentration of inhibitor was calculated at -100 mV holding potentials after at least 2 min of constant perfusion.
Concentration-response curves, IC50 and Hill slope were fitted and determined using the following equations:
Span=Top−Bottom y=Bottom+(Top−Bottom)/1+10^(LogIC50−x)^*Hill Slope

[2] = system: HEK-293 WT cells; experiment: Regulatory volume decrease (RVD) after hypotonic challenge, calcein fluorescence self-quenching; format: cell-based, human; details: for RVD inhibition at 10 μM (%) / inhibition at 10 µM: 10 μM inhibitor, after 30 min; for Effect on RVD at 30 μM: 30 μM inhibitor; for inhibition at 10 µM: Homo sapiens, HEK293, 0.5 h
Experimental: Measurements of changes in cell volume were performed using the calcein fluorescence self-quenching method. Briefly, calcein at high concentrations undergoes spontaneous self-quenching, and its fluorescence intensity decreases with increasing calcein concentration ([Capó-Aponte et al., 2005]). The variation in the fluorescence due to self-quenching indirectly reflects the volume of the cell.
HEK-293 WT and HEK-293 LRRC8-KO cells were cultured on polylysine-coated 24-well plates for 2 days. The cells were then loaded for 40 min with a solution containing 10 μM calcein-AM (Sigma–Aldrich) and washed 3 times with 1 ml of isotonic medium containing (in mM) 145 NaCl, 5 KCl, 1 MgCl2, 1 CaCl2, 10 glucose, and 10 HEPES pH 7.4 (300 mOsm.l^-1). Under this control experimental condition, basal fluorescence was measured every 90 s for 10 min using a plate reader (Ex: 460 nm, Em: 520 nm; Synergy HT, Biotek). After the baseline recording period (10 min), the medium was exchanged and replaced with iso- or hypo-osmotic bath solution adjusted to 200, 150, or 100 mOsm.l^-1. The change in fluorescence induced by replacement of the medium was then recorded over the following 50 min. The experiments were performed under control conditions and in the presence of various concentrations of inhibitors. The percent inhibition resulting from exposure of the cells to solutions containing a concentration of 10 μM for each inhibitor was calculated after maintaining the cells in hypotonic bath solution in the presence of the inhibitor for 30 min.

[3] = system: CaCC; design: method as in Namkung et al. (2013); details: ref Namkung et al. (2013); cited from earlier work
[4] = system: CFTR; details: cited from earlier work
[5] = system: ICl,swell; design: method as in Decher et al. (2001); details: ref Decher et al. (2001); cited from earlier work
[6] = system: other chloride channels (CFTR, CaCC, ClC); design: method as in Decher et al. (2001); details: 10 μM; ref Decher et al. (2001); cited from earlier work
[7] = whole-cell, WT HEK-293, hypotonic solution 270 mOsm.l^-1, calculated at -100 mV
[8] = 100 mOsm.l^-1 hypotonic challenge, 10 µM
[9] = 100 mOsm.l^-1 hypotonic challenge

SMILES | inhibition at 10 µM ([1]; whole-cell) [%] | Hill coefficient (chloride conductance) ([1]; whole-cell) | IC50 [1, 7] | RVD inhibition at 10 μM (%) [2, 8] [%] | Effect on RVD at 30 μM [2, 9] | inhibition at 10 µM [2, 9] [%] | Effect on hypotonic-activated Cl- currents at 20 μM ([1]; whole-cell) | inhibition at 20 µM ([1]; whole-cell) [%] | other results
O=C(O)c1cccnc1Nc1cccc(C(F)(F)F)c1 [NFA, niflumic acid] | 23 ± 4 | 0.8 ± 0.4 | 55 µM and 55.2 µM | 19.9 ± 7.2 | maximally inhibited the RVD process | 20 ± 7 |  |  | Inhibition at 10 μM (%) of chloride conductance ([1]; whole-cell, 10 µM): 22.5 ± 4.0%; Effect on hypotonically activated Cl- current at 100 μM ([1]; 100 μM inhibitor, whole-cell): maximal inhibitory effect
O=C(O)c1ccc(/C=C2\SC(=S)N(c3cccc(C(F)(F)F)c3)C2=O)cc1 [CFTRinh-172] |  |  |  |  |  |  | minor effect |  | Inhibition at 10 μM (%) of chloride conductance ([1]; whole-cell): No effect; Effect on hypotonic-activated Cl- currents at up to 10 μM ([1]; concentrations of up to 10 μM, whole-cell): almost no effect; Effect on VRAC current at up to 20 μM ([1]; concentrations of up to 20 μM): no significant effect; IC50 (chloride conductance) [1, 7]: No effect; RVD inhibition at 10 μM (%) [2, 9]: No effect; Effect on RVD at up to 20 μM ([2]; concentrations of up to 20 μM): no significant effect; Effect on RVD at doses lower than 30 μM ([2]; lower doses than 30 μM): ineffective; IC50 ([4]; ref Ma et al., 2002, read-out: IC50 (CFTR)): 0.3 µM
CCCCC1(C2CCCC2)Cc2cc(OCCCC(=O)O)c(Cl)c(Cl)c2C1=O (stereo not shown) [DCPIB, 4-(2-butyl-6,7-dichlor-2-cyclopentyl-indan-1-on-5-yl) oxybutyric acid] | 82.7 ± 3.2 | 2.9 ± 1.1 | 5 µM and 4.8 µM | 35.8 ± 3.1 |  | 36 ± 3 | full blockade | > 90 | Effect on RVD at 20 μM ([2]; 20 μM inhibitor, 100 mOsm.l^-1 hypotonic challenge): maximal effect; also recorded: completely impaired volume regulation; Block of ICl,swell at 10 μM [5]: more than 80%; Effect on other chloride channels (CFTR, CaCC, ClC) [6]: without any effect
Cc1ccc(C2Nc3ccccc3-n3c(-c4ccccc4)c4c(=O)n(C)c(=O)n(C)c4c32)o1 (stereo not shown) [PPQ-102] | 18.3 ± 11.3 | 2.2 ± 1.2 | 20 µM and 19.6 µM | 29.8 ± 5.9 | fully inhibited RVD | 30 ± 6 |  |  | Effect on ICl,swell at 1 μM ([1]; 1 μM inhibitor, whole-cell): ineffective; inhibition at 30 µM ([1]; 30 μM inhibitor, whole-cell): > 85%; IC50 ([4]; ref Tradtrantip et al., 2009, read-out: IC50 (CFTR)): < 0.1 µM

Second part, led by results:

inhibition at 10 µM ([1]; whole-cell) [%] | Hill coefficient (chloride conductance) ([1]; whole-cell) | IC50 [1, 7] | SMILES | RVD inhibition at 10 μM (%) [2, 8] [%] | Effect on RVD at 30 μM [2, 9] | inhibition at 10 µM [2, 9] [%] | Effect on hypotonic-activated Cl- currents at 20 μM ([1]; whole-cell) | inhibition at 20 µM ([1]; whole-cell) [%] | other results
58.4 ± 2 | 1.5 ± 0.6 | 6 µM and 5.5 µM | CCc1c(C)nc(SCC(=O)Nc2nc(-c3ccc(OC)cc3)cs2)[nH]c1=O [T16Ainh-A01] | 39.8 ± 9.6 | maximal effect | 40 ± 10 |  |  | inhibition at 3 µM ([1]; 3 μM inhibitor, whole-cell, read-out: Inhibition of hypotonically activated Cl- current at 3 μM): 23 ± 5%; IC50 [3]: 1 µM
46.6 ± 8.8 | 0.9 ± 0.4 | 10 µM and 9.5 µM | O=C(CNc1ccc2ccccc2c1)N/N=C/c1cc(Br)c(O)c(Br)c1O [GlyH-101] |  |  |  |  | > 85 | IC50 ([4]; ref Muanprasat et al., 2004, read-out: IC50 for CFTR): ~5 µM
